Where a name gives a salt, the structure may show the parent alone. Read-outs that look alike come from different tables or passages of the source.
How the values were obtained:
[1] = target: T1, σ1 receptors (Rattus norvegicus, UniProt Q9R0C9); details: read-out: Ki at σ1 (nM) Experimental Brain/Brandel; rat brain P2, 5 nM [3H](+)-pentazocine, cell harvester
[2] = target: σ2; details: read-out: Ki at σ2 (nM) Literature, cited from earlier work
[3] = target: σ1; details: read-out: Ki at σ1 (nM) Literature, cited from earlier work
[4] = target: T2, σ2 receptors (Rattus norvegicus, UniProt Q5U3Y7); test: σ2 competition binding, [3H]DTG with
T2 sequence (Q5U3Y7 1-176): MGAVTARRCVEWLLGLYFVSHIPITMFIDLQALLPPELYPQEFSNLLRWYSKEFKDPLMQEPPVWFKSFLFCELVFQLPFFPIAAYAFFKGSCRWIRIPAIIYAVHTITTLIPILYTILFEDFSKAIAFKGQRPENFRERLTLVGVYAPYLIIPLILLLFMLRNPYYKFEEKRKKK

[5] = target: T2, σ2 receptors; test: σ2 competition binding, [3H]DTG with; remark: listed apart in the source
[6] = target: T1, σ1 receptors; test: σ1 competition binding, [3H]
[7] = target: σ1; details: cited from earlier work
[8] = target: T1, σ1 receptors; test: biochemical
[9] = system: σ2; details: read-out: Ki at σ2 (nM) Literature (reported value is IC50); Guinea-pig brain; ref Chaki, 1994; cited from earlier work
[10] = target: σ2; details: read-out: Ki at σ2 (nM) Literature, footnote not given, cited from earlier work
[11] = target: σ1; details: read-out: Ki at σ1 (nM) Literature, footnote not given, cited from earlier work
[12] = Rat brain P2, 3 nM [3H]DTG with 1 μM dextrallorphan, ref Bowen, 1993
[13] = Rat brain P2 with 5 nM [3H](+)-pentazocine, ref Bowen, 1993
[14] = read-out: Ki at σ2 (nM) Experimental Brain/Brandel, rat brain P2, 3 nM [3H]DTG with 300 nM (+)-pentazocine, cell harvester

T1 sequence (Q9R0C9 whole entry): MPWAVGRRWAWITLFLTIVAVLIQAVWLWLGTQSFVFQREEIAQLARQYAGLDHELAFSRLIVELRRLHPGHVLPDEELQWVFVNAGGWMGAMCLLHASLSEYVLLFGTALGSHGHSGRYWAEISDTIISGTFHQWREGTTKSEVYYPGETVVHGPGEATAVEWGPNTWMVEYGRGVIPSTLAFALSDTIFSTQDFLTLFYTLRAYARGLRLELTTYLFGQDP

For `C=CCN1CCC2(C)c3cc(O)ccc3CC1C2C` (single isomer, unassigned; (+)) [(+)-SKF10, 047, (+)-N-allylnormetazocine hydrochloride], the Ki [1] is listed as 287 ± 36 nM, the Ki [2, 12] is listed as 33700 nM and the Ki [3, 13] is listed as 28.7 ± 2.8 nM.

For `CC(C)=CCN1CCC2(C)c3cc(O)ccc3CC1C2C` (single isomer, unassigned; (-)) [(−)-pentazocine], the Ki [4, 14] is listed as 108 ± 4.4 nM, the Ki [2, 12] is listed as 108 ± 6 nM and the Ki [3, 13] is listed as […].

In the case of `CC(C)=CCN1CC[C@]2(C)c3cc(O)ccc3C[C@H]1[C@H]2C` [(+)-pentazocine, (+)-Pentazocine], the Ki [5] is given as 1070 ± 94 nM, the Ki [4] is given as 1410 ± 207 nM and the Ki [2, 12] is given as 1360 ± 134 nM. For the same compound, the Ki [3, 13] was […].

For `c1ccc(CCN2CCCCC2)cc1` [AC927, N-phenethylpiperidine oxalate], the Ki [4, 14] is listed as 384 ± 34 nM, the Ki [1] is listed as 61.2 ± 5.6 nM and the Ki ([2]; Rat brain P2, 3 nM [3H]DTG with 300 nM (+)-pentazocine, ref Matsumoto, 2008) is listed as 138 ± 18 nM. For the same compound, the Ki ([3]; Rat brain P2 with 3 nM [3H](+)-pentazocine, ref Matsumoto, 2008) was 30 ± 2 nM.

For `CN1CCN(CCc2ccc(Cl)c(Cl)c2)CC1` [BD1063, 1-[2-(3,4-dichlorophenyl)ethyl]-4-methylpiperazine dihydrochloride], the Ki [6] is listed as 33.4 ± 4.1 nM, the Ki ([7]; read-out: Ki at σ1 (nM) Literature, Guinea-pig brain P2 with 3 nM [3H](+)-pentazocine, ref Matsumoto, 1995) is listed as 9.15 ± 1.28 nM and the Ki [8] is listed as 15 ± 2.1 nM.

With `CCCN(CCC)CCc1ccc(OC)c(OCCc2ccccc2)c1` [NE100, 4-methoxy-3-(2-phenylethoxy)-N,N-dipropylbenzeneethanamine hydrochloride] the Ki [6] was 2 ± 0.5 nM, the Ki [5] was 36.2 ± 1.1 nM and the Ki [4] was 95.5 ± 1 nM. For the same compound, the IC50 ([7]; read-out: Ki at σ1 (nM) Literature (reported value is IC50), Guinea-pig brain, ref Chaki, 1994) was 1.54 ± 0.26 nM, the Ki [8] was 2.8 ± 0.5 nM and the IC50 [9] was 84.6 ± 32.9 nM.

For `CCCc1ccc2c(c1)sc(=O)n2CCN1CCCCCC1` [SN56, 3-(2-(azepan-l-yl)ethyl)-6-propylbenzo[d]thiazol-2(3H)-one], the Ki ([6]; read-out: Ki (nM) σ1, Table 2, 96-well filtration method, rat liver P2, 5 nM [3H](+)-pentazocine) was 1.6 ± 0.1 nM, the “Ki σ2/Ki σ1” value ([6]; selectivity ratio for σ1 versus σ2, 96-well method) was 168 and the Ki [4, 14] was 627 ± 115 nM. For the same compound, the Ki [1] was 1.7 ± 0.1 nM, the Ki ([10]; ref h) was over 1000 nM and the Ki ([11]; ref h) was 0.56 nM.

With `COc1ccc2c(c1)[C@]13CCCC[C@@H]1[C@H](C2)N(C)CC3` [dextromethorphan, dextromethorphan hydrobromide] the Ki [6] was 214 ± 15 nM, the Ki [5] was over 10000 nM and the Ki [4] was over 10000 nM. The Ki ([11]; ref g) was 652 ± 33 nM and the Ki [8] was 403 ± 22 nM.

In the case of `COCCCC/C(=N\OCCN)c1ccc(C(F)(F)F)cc1` [fluvoxamine, fluvoxamine maleate], the Ki ([10]; ref e) is given as 8440 nM and the Ki ([11]; ref e) is given as 36 nM.

For `CC(=O)[C@H]1CC[C@H]2[C@@H]3CCC4=CC(=O)CC[C@]4(C)[C@H]3CC[C@]12C` [progesterone], the Ki [6] was 99.7 ± 3.1 nM, the Ki [5] was over 10000 nM and the Ki [4] was over 10000 nM. The Ki ([11]; ref f) was 338 ± 8 nM and the Ki [8] was 234 ± 4.4 nM.

In the case of `C[C@@H]1CN(CCCn2c3ccccc3c3ccccc32)C[C@H](C)N1` [rimcazole, rimcazole dihydrochloride monohydrate], the Ki [5] is listed as 719 ± 72 nM, the Ki [4] is listed as 1570 ± 154 nM and the Ki ([11]; ref g) is listed as 867 ± 185 nM.

— PMC3726061 (Journal of pharmaceutical and biomedical analysis, 2012)
